Test results from patent publication US9757415B2, “Composition comprising solanum glaucophyllum for preventing and/or treating hypocalcaemia and for stabilizing blood calcium levels” (HERBONIS AG, priority 2009, dated 2017).

Columns and labels:
cows = experiment: In vivo experiment, single oral bolus in cows: serum calcium and phosphate
Source text: The control group only received pectin.

in vivo = details: female, brown, Fleckvieh and Holstein, cow, serum, po, 500 ng
Procedure: Twenty-five cows of the races brown, Fleckvieh and Holstein of a weight of approximately 500-600 kg weight and including lactating and non-lactating subjects were allocated to 5 treatment groups as detailed in Table 6 blow. The animals were given a single dose of the test preparation orally per bolus. Blood was taken at time 0 (before application) and at days 1, 2, 3, 4, 5, 7, 9 and 11 following application. From the blood, serum was prepared and calcium (total), phosphate and 1,25-(OH)2 vitamin D3 was analyzed according to established clinico-chemical methods.
Treatment: all test preparations were applied to the animal as one single bolus in a gelatine capsule (length 7 cm, diameter 2.2 cm and volume 24 mL, Capsula GmbH, Ratingen, Germany) with the aid of a usual bolus applicator. The volume that was not filled with tablets was filled up with pectin as inert excipient. The control group only received pectin.
The boluses contained, in accordance with the treatment group, instant release tablets as described in Example 3 (groups 2 and 4) and retard release tablets as prepared in Example 4 (groups 1 and 4).

[1] = day 0 (before application), n = 5, single oral bolus
[2] = day 2, n = 5, single oral bolus
[3] = day 3, n = 5, single oral bolus
[4] = day 4, n = 5, single oral bolus
[5] = day 5, n = 5, single oral bolus
[6] = day 7, n = 5, single oral bolus
[7] = day 9, n = 5, single oral bolus
[8] = day 11, n = 5, single oral bolus

concentration at 0 day (in vivo): 0.02 ng/mL | concentration at 1 day (in vivo): 0.243 ng/mL | concentration at 2 day (in vivo): 0.15 ng/mL | concentration at 3 day (in vivo): 0.056 ng/mL | concentration at 4 day (in vivo): 0.04 ng/mL | concentration at 5 day (in vivo): 0.046 ng/mL | concentration at 7 day (in vivo): 0.03 ng/mL | concentration at 9 day (in vivo): 0.023 ng/mL | concentration at 11 day (in vivo): 0.025 ng/mL
Structure (SMILES): C=C1/C(=C\C=C2/CCC[C@]3(C)[C@@H]([C@H](C)CCCC(C)(C)O)CC[C@@H]23)C[C@@H](O)C[C@@H]1O [Group 3, 1,25-dihydroxyvitamin D3]
Serum calcium (mean ± standard deviation) (cows; [1]): 2.40 ± 0.2 ^ mmol/L | Serum phosphate (mean ± standard deviation) (cows; [1]): 2.30 ± 0.07 mmol/L | Serum calcium (mean ± standard deviation) (cows; day 1, n = 5, single oral bolus): 2.64 ± 0.05 E mmol/L | Serum calcium (mean ± standard deviation) (cows; [2]): 2.67 ± 0.09 Ed mmol/L | Serum phosphate (mean ± standard deviation) (cows; [2]): 2.81 ± 0.25 ED mmol/L | Serum calcium (mean ± standard deviation) (cows; [3]): 2.72 ± 0.09 E mmol/L | Serum phosphate (mean ± standard deviation) (cows; [3]): 3.05 ± 0.19 Ed mmol/L | Serum calcium (mean ± standard deviation) (cows; [4]): 2.72 ± 0.06 E mmol/L | Serum phosphate (mean ± standard deviation) (cows; [4]): 3.24 ± 0.34 E mmol/L | Serum calcium (mean ± standard deviation) (cows; [5]): 2.61 ± 0.02 E mmol/L | Serum phosphate (mean ± standard deviation) (cows; [5]): 2.60 ± 0.32 E mmol/L | Serum calcium (mean ± standard deviation) (cows; [6]): 2.57 ± 0.06 e^ mmol/L | Serum phosphate (mean ± standard deviation) (cows; [6]): 2.43 ± 0.23 e mmol/L | Serum calcium (mean ± standard deviation) (cows; [7]): 2.56 ± 0.09 ^ mmol/L | Serum phosphate (mean ± standard deviation) (cows; [7]): 2.05 ± 0.44 mmol/L | Serum calcium (mean ± standard deviation) (cows; [8]): 2.45 ± 0.02 ^ mmol/L | Serum phosphate (mean ± standard deviation) (cows; [8]): 2.10 ± 0.16 mmol/L
